Publication PMC9898036, “VIP152 is a selective CDK9 inhibitor with pre-clinical in vitro and in vivo efficacy in chronic lymphocytic leukemia” (Leukemia, 2022)

What was measured:
Type in all cases: binding
ERBB2 = ERBB2 (Homo sapiens, UniProt P04626); experiment: KINOMEscan: ERBB2
Method: The structure and synthesis of VIP152 were recently described by Lücking et al.. (Fig. 1A); however, the selectivity of the molecule in cellular systems has yet to be explored. […] We also performed this experiment at 1000 nM, where CDK9 was inhibited at 99%. […] We found a strong concordance between our data and those of Lücking when comparing the most inhibited kinases. Potential off-target effects of VIP152 were next tested in vitro at a concentration of 10 µM for off-target activity against a broad range of receptors, transporters, ion channels, and enzymes (n = 138) using the Eurofins Diversity Panel.
Kinomescan Kinase Profiling Assay
Kinomescan Assay was performed at DiscoverRX and described in Fabian, et al. 2005, Nat.
Biotechnol. In brief, kinases were produced and subsequently tagged with DNA for qPCR detection.
Streptavidin-coated magnetic beads were bound to biotinylated kinase ligands to serve as a solid support.
VIP152 was dissolved in DMSO and tested across a 10 serial threefold dilution set and compared to a test compound and a DMSO control. Kinases which were inhibited by VIP152 would not be bound to the solid-support resulting in decreased substrate for the qPCR reaction. Kinome map was produced via TreeSpot Analysis from DiscoverRX. […]
NanoBRETTM Target Engagement Assay Protocol […]
HEK293 cells were grown to 70-80% confluence appropriately prior to assay and subsequently trypsinized. Lipid:DNA complexes were prepared as follows. A 10µg/mL solution of DNA in Opti-MEM without serum consisting of the following ratios of carrier DNA and DNA encoding NanoLuc fusion were prepared.
9.0µg/mL of Transfection Carrier DNA, 1.0µg/mL of NanoLuc fusion vector DNA, and 1mL of Opti-MEM without phenol red. The solution was mixed thoroughly. Next, 30µL of FuGENE HD Transfection Reagent was added into each mL of DNA mixture to form the lipid:DNA complex and mixed by inversion 10 times followed by a 20 minute incubation at room temperature. […]

[1] = target: RPS6KA4(Kin.Dom.1-N-terminal) (Homo sapiens, UniProt O75676); experiment: KINOMEscan: RPS6KA4(Kin.Dom.1-N-terminal); details: 100 nM, read-out: Percent Control
Chain of RPS6KA4(Kin.Dom.1-N-terminal) (O75676 1-371 limits assumed): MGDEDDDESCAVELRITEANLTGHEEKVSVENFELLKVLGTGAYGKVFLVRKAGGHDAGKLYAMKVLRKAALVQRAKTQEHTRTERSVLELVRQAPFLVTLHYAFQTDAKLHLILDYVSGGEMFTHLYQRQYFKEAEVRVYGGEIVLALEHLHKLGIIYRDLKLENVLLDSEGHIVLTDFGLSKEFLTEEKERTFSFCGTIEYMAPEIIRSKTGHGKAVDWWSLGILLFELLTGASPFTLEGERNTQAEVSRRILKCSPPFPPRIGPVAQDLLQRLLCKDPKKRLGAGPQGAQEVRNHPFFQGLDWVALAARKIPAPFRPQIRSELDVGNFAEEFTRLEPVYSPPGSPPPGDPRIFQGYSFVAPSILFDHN

WNK2 = WNK2 (Homo sapiens, UniProt Q9Y3S1); experiment: KINOMEscan: WNK2; details: 100 nM, read-out: Percent Control
ADCK4 = ADCK4 (Homo sapiens, UniProt Q96D53); experiment: KINOMEscan: ADCK4; details: 1000 nM, read-out: Percent Control
Chain of ADCK4 (Q96D53 whole entry): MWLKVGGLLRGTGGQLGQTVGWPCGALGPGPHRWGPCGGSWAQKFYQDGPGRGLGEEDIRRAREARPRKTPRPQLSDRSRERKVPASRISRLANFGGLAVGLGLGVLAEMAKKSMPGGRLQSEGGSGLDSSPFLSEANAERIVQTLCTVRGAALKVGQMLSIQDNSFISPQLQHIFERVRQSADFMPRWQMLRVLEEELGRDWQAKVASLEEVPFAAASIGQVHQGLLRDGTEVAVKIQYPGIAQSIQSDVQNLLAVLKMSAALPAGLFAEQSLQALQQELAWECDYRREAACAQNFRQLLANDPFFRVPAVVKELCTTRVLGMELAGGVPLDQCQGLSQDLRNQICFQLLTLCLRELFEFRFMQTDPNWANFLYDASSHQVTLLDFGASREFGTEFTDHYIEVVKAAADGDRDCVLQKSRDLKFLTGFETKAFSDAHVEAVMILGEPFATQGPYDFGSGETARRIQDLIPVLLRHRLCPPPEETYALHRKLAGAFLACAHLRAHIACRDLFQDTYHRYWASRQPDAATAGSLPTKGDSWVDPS

BRSK2 = BRSK2 (Homo sapiens, UniProt Q8IWQ3); experiment: KINOMEscan: BRSK2; details: 1000 nM, read-out: Percent Control
Chain of BRSK2 (Q8IWQ3 whole entry): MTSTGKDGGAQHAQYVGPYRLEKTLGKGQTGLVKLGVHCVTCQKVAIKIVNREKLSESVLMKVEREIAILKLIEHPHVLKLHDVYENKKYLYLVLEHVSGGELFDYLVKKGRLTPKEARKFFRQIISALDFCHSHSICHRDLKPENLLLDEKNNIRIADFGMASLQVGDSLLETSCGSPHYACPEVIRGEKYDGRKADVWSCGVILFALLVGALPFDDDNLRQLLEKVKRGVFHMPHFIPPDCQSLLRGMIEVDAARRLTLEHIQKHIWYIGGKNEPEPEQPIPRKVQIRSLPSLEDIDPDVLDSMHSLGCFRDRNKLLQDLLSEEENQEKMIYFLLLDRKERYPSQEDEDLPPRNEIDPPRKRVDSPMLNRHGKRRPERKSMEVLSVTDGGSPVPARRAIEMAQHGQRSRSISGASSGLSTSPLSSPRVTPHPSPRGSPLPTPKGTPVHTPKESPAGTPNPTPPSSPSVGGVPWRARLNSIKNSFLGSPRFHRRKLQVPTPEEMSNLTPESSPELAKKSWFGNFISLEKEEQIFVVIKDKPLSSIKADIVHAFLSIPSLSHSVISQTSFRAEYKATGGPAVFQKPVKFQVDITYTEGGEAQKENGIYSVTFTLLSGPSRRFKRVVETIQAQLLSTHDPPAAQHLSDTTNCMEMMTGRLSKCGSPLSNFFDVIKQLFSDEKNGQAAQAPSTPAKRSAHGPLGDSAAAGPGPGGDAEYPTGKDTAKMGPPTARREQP

CHEK2 = CHEK2 (Homo sapiens, UniProt O96017); experiment: KINOMEscan: CHEK2; details: 1000 nM, read-out: Percent Control
Chain of CHEK2 (O96017 whole entry): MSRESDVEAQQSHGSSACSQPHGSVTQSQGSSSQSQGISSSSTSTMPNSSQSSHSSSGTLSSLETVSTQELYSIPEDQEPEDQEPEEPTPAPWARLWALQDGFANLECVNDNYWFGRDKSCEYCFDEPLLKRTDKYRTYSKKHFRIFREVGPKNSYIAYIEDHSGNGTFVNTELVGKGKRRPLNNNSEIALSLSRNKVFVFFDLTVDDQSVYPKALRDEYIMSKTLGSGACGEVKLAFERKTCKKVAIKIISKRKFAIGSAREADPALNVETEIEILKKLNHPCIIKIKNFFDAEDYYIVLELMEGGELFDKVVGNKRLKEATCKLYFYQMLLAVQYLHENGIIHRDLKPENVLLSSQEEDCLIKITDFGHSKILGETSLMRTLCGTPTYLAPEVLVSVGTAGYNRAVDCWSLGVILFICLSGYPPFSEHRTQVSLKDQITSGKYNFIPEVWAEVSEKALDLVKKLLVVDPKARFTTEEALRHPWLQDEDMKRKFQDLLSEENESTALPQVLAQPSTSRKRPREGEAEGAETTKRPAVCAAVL

LIMK1 = LIMK1 (Homo sapiens, UniProt P53667); experiment: KINOMEscan: LIMK1; details: 1000 nM, read-out: Percent Control
Chain of LIMK1 (P53667 whole entry): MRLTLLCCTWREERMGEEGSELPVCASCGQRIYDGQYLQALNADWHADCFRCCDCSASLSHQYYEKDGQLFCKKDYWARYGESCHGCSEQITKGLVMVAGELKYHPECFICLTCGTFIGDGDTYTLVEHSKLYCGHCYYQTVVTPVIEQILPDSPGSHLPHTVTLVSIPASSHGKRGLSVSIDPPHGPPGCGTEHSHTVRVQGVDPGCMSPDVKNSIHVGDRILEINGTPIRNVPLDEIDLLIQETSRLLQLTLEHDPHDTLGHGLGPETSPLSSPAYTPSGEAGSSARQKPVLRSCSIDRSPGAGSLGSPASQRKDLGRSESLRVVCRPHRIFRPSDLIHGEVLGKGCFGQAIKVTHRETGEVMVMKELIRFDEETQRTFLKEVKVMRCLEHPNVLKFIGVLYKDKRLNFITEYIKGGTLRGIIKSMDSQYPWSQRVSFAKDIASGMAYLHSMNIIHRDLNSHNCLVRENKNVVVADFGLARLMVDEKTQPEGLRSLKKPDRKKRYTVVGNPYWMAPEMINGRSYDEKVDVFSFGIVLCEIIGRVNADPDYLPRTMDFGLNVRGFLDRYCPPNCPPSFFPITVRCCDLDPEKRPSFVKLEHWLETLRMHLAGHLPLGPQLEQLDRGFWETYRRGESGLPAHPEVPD

Chain of ERBB2 (P04626 23-1255): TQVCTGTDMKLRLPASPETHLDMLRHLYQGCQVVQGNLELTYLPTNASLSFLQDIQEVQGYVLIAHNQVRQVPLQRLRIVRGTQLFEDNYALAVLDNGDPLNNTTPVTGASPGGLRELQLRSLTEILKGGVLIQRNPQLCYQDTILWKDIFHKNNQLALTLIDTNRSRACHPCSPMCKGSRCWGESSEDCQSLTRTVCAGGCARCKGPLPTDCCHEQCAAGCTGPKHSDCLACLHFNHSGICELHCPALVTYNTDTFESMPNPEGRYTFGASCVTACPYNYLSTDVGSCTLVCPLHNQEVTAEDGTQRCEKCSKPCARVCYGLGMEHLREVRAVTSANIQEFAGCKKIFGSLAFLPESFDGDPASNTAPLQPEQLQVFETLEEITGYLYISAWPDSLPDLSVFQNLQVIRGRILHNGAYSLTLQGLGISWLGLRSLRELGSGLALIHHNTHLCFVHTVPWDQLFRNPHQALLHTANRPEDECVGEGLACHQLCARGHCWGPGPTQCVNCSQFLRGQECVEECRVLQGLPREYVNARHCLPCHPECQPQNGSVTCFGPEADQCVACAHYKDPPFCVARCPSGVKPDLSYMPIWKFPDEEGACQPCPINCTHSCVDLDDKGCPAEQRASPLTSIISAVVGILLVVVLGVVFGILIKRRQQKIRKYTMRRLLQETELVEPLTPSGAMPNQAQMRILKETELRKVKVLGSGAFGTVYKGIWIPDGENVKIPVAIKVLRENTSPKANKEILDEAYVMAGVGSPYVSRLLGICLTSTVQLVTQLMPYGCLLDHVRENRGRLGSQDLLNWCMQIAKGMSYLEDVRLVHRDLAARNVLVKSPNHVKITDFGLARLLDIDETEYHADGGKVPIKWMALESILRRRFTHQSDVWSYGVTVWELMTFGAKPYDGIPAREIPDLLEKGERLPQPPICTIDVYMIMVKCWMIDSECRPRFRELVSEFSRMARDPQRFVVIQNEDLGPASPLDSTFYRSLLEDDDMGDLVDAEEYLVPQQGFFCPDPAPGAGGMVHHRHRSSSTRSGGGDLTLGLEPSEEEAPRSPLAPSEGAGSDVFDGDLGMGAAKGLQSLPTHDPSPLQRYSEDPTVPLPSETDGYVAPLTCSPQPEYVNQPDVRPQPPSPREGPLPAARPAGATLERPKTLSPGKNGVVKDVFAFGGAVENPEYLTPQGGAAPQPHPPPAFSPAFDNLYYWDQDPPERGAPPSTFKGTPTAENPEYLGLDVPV

## COc1cc(F)ccc1-c1cc(Nc2cc(CS(C)(=N)=O)ccn2)ncc1F (stereo not drawn) [VIP152]
ERBB2; 100 nM, read-out: inhibition of ERBB2 relative to control
  inhibition at 0.1 µM: 65%
ERBB2; ERBB2, 100 nM, read-out: Percent Control
  remaining binding at 0.1 µM: 35%
ERBB2; ERBB2, 1000 nM, read-out: Percent Control
  remaining binding at 1 µM: 100%
[1]
  remaining binding at 0.1 µM: 100%
WNK2
  remaining binding at 0.1 µM: 100%
ADCK4
  remaining binding at 1 µM: 82%
BRSK2
  remaining binding at 1 µM: 100%
CHEK2
  remaining binding at 1 µM: 77%
LIMK1
  remaining binding at 1 µM: 92%
